Laboratory results taken from article PMC12568586, “Mass spectrometry-guided discovery of novel GCPII inhibitor scaffolds” (Frontiers in Pharmacology, 2025).
Where “and” joins values, the source holds several entries; their conditions need not be identical. Equal values may be shown once. Read-outs that look alike come from different tables or passages of the source.

Tests used:
[1] = target: T1, human rGCPII (Homo sapiens, UniProt Q04609); test: orthogonal radioenzymatic GCPII inhibition assay (3H-NAAG); assay type: biochemical; details: NAA[3H]G 30 nM, GCPII 40 pM, 37 °C, 25 min
T1 construct: purchased Sino Biological
Method: Radioenzymatic assay using ^3H-NAAG was performed as previously described ([Barinka et al., 2002]). Briefly, a 50 μL reaction mixture containing NAA [^3H]G (30 nM, 49 μCi/nmol) and GCPII (40 pM), in Tris-HCl (pH 7.4, 40 mM) with 1 mM CoCl2 was incubated at 37 °C for 25 min and stopped with 50 μL ice-cold sodium phosphate buffer (pH 7.5, 0.1 M). AG1X8 ion-exchange resin was used to separate cleaved [^3H]glutamate, and the flowthrough was transferred to solid scintillator-coated 96-well plates (Packard) and allowed to dry. Radioactivity was measured by a Topcount NXT from Packard. Each compound was run in duplicate, and 6–8-point dose-response curves were generated.

[2] = target: T2, GCPII (Homo sapiens, UniProt Q04609); test: dual-stream LC/MS/MS GCPII substrate cleavage (inhibition) assay; assay type: biochemical; set-up: purchased Sino Biological; details: for IC50: follow up screening, triplicate IC50 values ± standard deviation, read-out: IC50 (mass spec assay); for inhibition at 10 µM: read-out: inhibition relative to the DMSO and no enzyme controls; for HTS max resp / Max resp (100uM): in % (unit assumed)
Method: The novel high-throughput dual-stream liquid chromatography–tandem mass spectrometry method used to screen for this study was recently published ([Hoxie et al., 2024]). Briefly, a 5 μL solution containing recombinant GCPII (SinoBio) in Tris–HCl (pH 7.4) with 1 mM CoCl2 was dispensed using a BioRAPTR 2.0 Flying Reagent Dispenser (Let’s Go Robotics) into 384-well assay plates (Greiner 784,201) pre-spotted with 100 nL of compound in DMSO using an Echo 655 Acoustic Liquid Handler (Beckman). Enzyme and compound were incubated for 15 min prior to the addition of 5 μL of ^13C5 ^15N-acetylaspartylglutamate (Aldrich). After 30 min s at room temperature, reactions were quenched using 0.2 μM D3-glutamate in LC/MS-grade acetonitrile and 0.1% formic acid. A 2-min liquid chromatography method utilizing a 2.1 × 30 mm BEH Amide HILIC column (Waters) was used to resolve glutamate from NAA and NAAG. A Sciex 6,500+ Q-Trap mass spectrometer was utilized for MS/MS quantification of released glutamate in the presence of compound. The integrated peak areas were normalized against the d3-glutamate internal standard, and then degree of inhibition was calculated using replicates containing no enzyme and enzyme with equivalent volumes of DMSO. Compounds were initially screened in a 10 μL reaction volume with 10 μM (final) compound dissolved in DMSO. […] To further increase throughput and the efficiency of screening, LC/MS analysis of libraries was conducted in dual-stream mode on an LS-1 autosampler (Sound Analytics).

[3] = test system: GCPII; details: prior art compound, value given when selected for assay validation; no reference given; cited from earlier work
[4] = target: T3, recombinant human (rh) GCPII (Homo sapiens, UniProt Q04609); test: nanoDSF thermal shift assay; assay type: binding; details: for Tm of GCPII in the presence of compound: compound at 250 μM, DMSO Tm 78.93 °C; for shift in Tm (Δ): compound at 25 μM, vs DMSO
T3 construct: purchased Sino Biological
Method: nanoDSF experiments were performed to assess the thermal stability of GCPII in the presence of various inhibitors. Protein samples were prepared at a concentration of 0.15 mg/mL in 50 mM Tris-HCl (pH 7.4), 1 mM CoCl2, 150 mM NaCl, and 0.01% Tween-20. Samples were incubated at 25 °C for 30 min prior to measurement with shaking at 1,000 rpm. Thermal unfolding was monitored using a Prometheus Panta nanoDSF instrument using standard capillaries (NanoTemper Technologies). The intrinsic fluorescence at 350 nm and 330 nm was recorded as a function of temperature, and the fluorescence ratio (350/330 nm) and its first derivative were used to track protein unfolding. A thermal gradient from 25 °C to 95 °C was applied at a rate of 0.5 °C per minute. The melting temperature (Tm) was determined from the global maximum of the first derivative of the fluorescence ratio curve. Each condition was tested in at least three independent replicates, and data was analyzed using PR. ThermControl software (NanoTemper Technologies). One-way ANOVA with multiple comparisons to the DMSO vehicle control group was used to determine significant shifts from the control thermal unfolding profile.

[5] = target: T2, GCPII; test: mode of inhibition study (radioenzymatic assay, varied NAA[3H]G, Michaelis-Menten analysis); details: for Ki: Ki (secondary plot Km app/Vmax vs [inhibitor], −X intercept), 40 pM GCPII; for mode of inhibition: NAAG as substrate
Method: The mode of inhibition was also determined as previously described following the same procedure as the radioenzymatic-based IC50 assay but with modification of the concentrations of NAA [^3H]G. ([Barinka et al., 2002]). […] A Michaelis-Menten kinetics analysis was done to determine the Km and Vmax at each inhibitor concentration.

[6] = pharmacokinetic and brain penetration study in mice; assay type: in vivo; details: 100 mg/kg IP, C57BL/6 mice
Method: Pharmacokinetic studies in mice were approved by the Animal Care and Use Committee at Johns Hopkins University. Male C57BL/6 mice (25–30 g) were housed under a 12-h light-dark cycle with ad libitum access to food and water. Cefsulodin was administered intraperitoneally (IP) at a dosage of 100 mg/kg prepared freshly (5% DMSO and 95% HEPES saline v/v) with a dosing volume of 10 mL/kg. Blood and brain tissue samples were collected at 0.083–3 h post-administration (n = 3 per time point). Blood was obtained via cardiac puncture, and plasma was separated by low-speed centrifugation at 3,000 × g for 15 min and stored at −80 °C. Brain tissues were harvested, and immediately frozen in liquid nitrogen, and stored at −80 °C until analyses.
As cefsulodin is known to be unstable, plasma and brain tissue samples were prepared with the addition of 2% formic acid in water to adjust the pH to 5 ([Lecaillon et al., 1982]). For quantification of cefsulodin, plasma samples were diluted 10-fold with blank plasma, and a total of 40 μL of plasma was extracted using a protein precipitation method by adding methanol containing the internal standard (diclofenac, 1 μM). The mixture was vortex-mixed for 30 s and centrifuged at 14,000 rpm for 5 min at 4 °C. Brain tissues were homogenized in methanol at a 1:5 (w/v) ratio. A 50 μL aliquot of the homogenate was precipitated with methanol containing the internal standard, vortex-mixed, and centrifuged at 14,000 rpm for 5 min at 4 °C. A 150 μL aliquot of the supernatant was transferred to a polypropylene vial sealed with a Teflon cap and analyzed by liquid chromatography with tandem mass spectrometric methods (LC-MS/MS) as described below.
Cefsulodin concentrations in mouse plasma and brain were measured using a Shimadzu Nexera X2 LC-40D system (Shimadzu Corporation, Kyoto, Japan) coupled with an API 6500 triple quadrupole mass spectrometer (AB Sciex, Redwood City, CA, United States). […] Quantitation was performed in multiple reaction monitoring (MRM) mode using cefsulodin (533.03 > 123.03) and diclofenac as the internal standard (296.13 > 215.03) ([Zhou et al., 2024]; [Park et al., 2024]). Calibration curves were constructed over the range of 0.01–100 nmol/mL or nmol/g for plasma and brain, respectively.
Plasma concentrations (nmol/mL) and brain concentrations (nmol/g) were determined, and mean concentration-time profiles were plotted for pharmacokinetic analysis. Non-compartmental analysis was performed using the Phoenix WinNonlin software version 8.4 (Certara United States, Inc., Princeton, NJ) to calculate pharmacokinetic parameters, including the maximum concentration (Cmax), time to Cmax (Tmax), and area under the concentration-time curve (AUC0–t).

[7] = maximum response at 100uM, dose response
[8] = library screening, seven-point dose response, read-out: AC50

T1 sequence (Q04609 whole entry): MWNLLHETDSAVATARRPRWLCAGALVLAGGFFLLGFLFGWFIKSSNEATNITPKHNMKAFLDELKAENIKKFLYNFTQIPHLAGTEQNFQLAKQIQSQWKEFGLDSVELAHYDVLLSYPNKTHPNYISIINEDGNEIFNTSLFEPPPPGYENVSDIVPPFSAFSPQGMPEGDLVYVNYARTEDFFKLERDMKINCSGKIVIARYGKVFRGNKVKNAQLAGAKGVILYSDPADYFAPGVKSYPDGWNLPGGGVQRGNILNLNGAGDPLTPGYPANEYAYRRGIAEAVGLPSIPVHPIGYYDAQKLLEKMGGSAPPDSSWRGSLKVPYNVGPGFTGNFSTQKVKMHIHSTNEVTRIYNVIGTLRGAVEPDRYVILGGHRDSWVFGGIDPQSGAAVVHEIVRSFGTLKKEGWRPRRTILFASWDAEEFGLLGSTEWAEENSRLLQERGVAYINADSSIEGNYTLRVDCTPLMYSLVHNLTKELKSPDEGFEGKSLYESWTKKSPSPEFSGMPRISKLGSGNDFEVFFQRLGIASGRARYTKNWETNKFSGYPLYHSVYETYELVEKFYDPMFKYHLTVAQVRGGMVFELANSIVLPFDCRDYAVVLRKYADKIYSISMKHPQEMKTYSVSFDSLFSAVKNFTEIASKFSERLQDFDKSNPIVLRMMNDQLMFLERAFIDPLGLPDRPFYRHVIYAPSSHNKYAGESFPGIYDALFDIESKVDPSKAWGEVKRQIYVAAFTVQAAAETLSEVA
T3 sequence (Q04609 whole entry): as above
T2 sequence (Q04609 whole entry): as above

Structure (SMILES) | IC50 [1] | IC50 [2] | inhibition at 10 µM ([2]; single point screen at 10 µM) | Max resp (100uM) [2, 7] | HTS max resp ([2]; primary high-throughput screen) | further results
O=C(O)C1=C(CSc2nnnn2CS(=O)(=O)O)CS[C@@H]2[C@H](NC(=O)[C@H](O)c3ccccc3)C(=O)N12 [Cefonicid sodium] | 4900 ± 2000 nM | 32 ± 2 µM |  |  |  | 
NCc1ccccc1CC(=O)N[C@@H]1C(=O)N2C(C(=O)O)=C(CSc3nnnn3CC(=O)O)CS[C@H]12 [Ceforanide] | 14000 ± 6000 nM | 29 ± 0.4 µM |  |  |  | 
CN(Cc1cnc2nc(N)nc(N)c2n1)c1ccc(C(=O)N[C@@H](CCC(=O)O)C(=O)O)cc1 [Methotrexate] |  |  | ≥ 50% |  |  | 
O=C1OC(c2ccc(O)c(S(=O)(=O)O)c2)(c2ccc(O)c(S(=O)(=O)O)c2)c2c(Br)c(Br)c(Br)c(Br)c21 [Sulfobromophthalein] | 230 ± 100 nM | 0.4 ± 0.1 µM |  |  |  | 
Cc1cc(-c2ccc(/N=N/c3c(S(=O)(=O)O)cc4cc(S(=O)(=O)O)cc(N)c4c3O)c(C)c2)ccc1/N=N/c1c(S(=O)(=O)O)cc2cc(S(=O)(=O)O)cc(N)c2c1O [Trypan blue] | 210 ± 50 nM | 2.1 ± 0.4 µM |  |  |  | 
N[C@@H](Cn1oc(=O)[nH]c1=O)C(=O)O [L-Quisqualic acid] |  |  |  |  |  | AC50 [2]: 7.9 µM; HTS max resp [2]: −93.07; Max resp (100uM) [2]: −91.35; inhibition at 10 µM [2]: ≥ 50%; IC50 [3]: 10000 nM
CC1(C)C(/C=C/C=C/C=C/C=C2\N(CCCCS(=O)(=O)O)c3ccc4ccccc4c3C2(C)C)=[N+](CCCCS(=O)(=O)[O-])c2ccc3ccccc3c21 [Indocyanine green] | 1900 ± 300 nM | 11 ± 0.2 µM |  |  |  | 
CO[C@@]1(NC(=O)C2SC(=C(C(N)=O)C(=O)O)S2)C(=O)N2C(C(=O)O)=C(CSc3nnnn3C)CS[C@@H]21 (stereo partly shown) [Cefotetan] | 2000 ± 1000 nM | 9.7 ± 3 µM |  |  |  | 
O=C(O)CCC(CCCS)C(=O)O (stereo not shown) [2-MPPA, 2-(3-mercaptopropyl)pentanedioic acid] |  |  | ≥ 50% | −96.75 | −100.00 | Tm of GCPII in the presence of compound [4]: 79.25 °C; IC50 [3]: 90 nM
NC(=O)c1cc[n+](CC2=C(C(=O)O)N3C(=O)[C@@H](NC(=O)[C@@H](c4ccccc4)S(=O)(=O)[O-])[C@H]3SC2)cc1 [Cefsulodin] | 2000 ± 100 nM | 3.6 ± 0.3 µM |  | −98.19 | −92.18 | Ki [5]: 2500 nM and 2000 nM; mode of inhibition [5]: competitive, active-site inhibition; shift in Tm (Δ) [4]: 0.65 (±0.07) °C; brain penetration index [6]: low; brain Cmax ([6]; brain): 4 µM and 4.9 µM; brain exposure (AUC) ([6]; brain): 4.36 ± 1.12 nmol·h/g; time of brain Cmax ([6]; brain, post-dose): 30 min; AC50 [2, 8]: 3.9 µM
Nc1nc(=O)c2nc(CNc3ccc(C(=O)N[C@@H](CCC(=O)O)C(=O)O)cc3)cnc2[nH]1 [Folic Acid] |  |  | ≥ 50% |  |  | 
O=S(=O)(O)c1ccc2c(/N=N/c3ccc(S(=O)(=O)O)c4ccccc34)c(O)c(S(=O)(=O)O)cc2c1 [Amaranth] | 300 ± 10 nM | 1.5 ± 0.3 µM |  | −101.68 | −101.93 | Ki [5]: 1100 ± 60 nM; mode of inhibition [5]: non-competitive inhibition; shift in Tm (Δ) [4]: 0.76 °C; AC50 [2, 8]: 2.5 µM
O=C(O)CCC(CP(=O)(O)O)C(=O)O (stereo not shown) [2-PMPA, 2-(phosphonomethyl)pentanedioic acid] |  |  | ≥ 50% | −98.19 | −100.00 | Tm of GCPII in the presence of compound [4]: 90.70 °C; IC50 [3]: […]
